According to patent publication US7387779B2, “Anti-angiogenic proteins and fragments and methods of use thereof” (Beth Israel Deaconess Medical Center, priority 1998, dated 2008):

B1: Tum-5-125-C-A: Tumstatin-44-131 with cysteine at position 125 mutated to alanine (SEQ ID NO:34) (protein)
chain: FSFLFVQGNQRAHGQDLGTLGSCLQRFTTMPFLFCNVNDVCNFASRNDYSYWLSTPALMPMNMAPITGRALEPYISRCTVAEGPAIAI
modifications: Tumstatin-5-125-C-A (amino acids 45-132 of SEQ ID NO10; alanine has been substituted for the cysteine residue at position 125 of the full-length Tumstatin molecule)

Experiments:
C-PAE cells [1] = assay: Annexin V-FITC apoptosis assay; type: cell-based, bovine; conditions: 5 μg/ml Arresten, 40 ng/ml TNFα
Description: Fifty thousand C-PAE cells were added to each well of a 6-well tissue culture plate in DMEM supplemented with 10% FBS for 12 hours. Fresh medium together and either 5 μg/ml Arresten or 40 ng/ml TNFα (positive control) was added at 2, 4 and 6 hour time points. Control wells received an equal of volume of PBS. Detached cells and adherent cells were pooled together and centrifuged at 1500 rpm. Cells were washed with binding buffer (Clontech, Palo Alto, Calif., USA), and phosphatidyl-serine (PS) externalization, an indicator of apoptosis, was measured by labeling with FITC-labeled annexin V (Clontech) according to manufacturer's instructions. Annexin-FITC labeled cells were counted using a FACStar Plus flow cytometer (Becton-Dickinson, Waltham, Mass., USA). For each treatment, 10,000 cells were counted and stored. […] Relative to controls, the percentage of annexin-V-stained (apoptotic) cells increased to about 27% at 2 hours, and near 20% at 4 and 6 hours for the positive control, TNFα. For Arresten-treated cells, the percentage of apoptotic cells was about 18% at 2 hours, and about 23% at 4 and 6 hours.
Annexin V-FITC Labeling. In order to establish apoptosis as the potential mode of action for Canstatin, Annexin V-FITC was used to label externalized phosphatidylserine (PS), to assess apoptotic cells. 0.5×10^6 C-PAE cells, PC-3, 786-O and HEK 293 cells were added to each well of a 6 well tissue culture plate in 10% FBS supplemented DMEM (BioWhittaker, Walkersville, Md., USA) overnight. The next day, fresh medium was added to all wells together with 40 ng/ml TNF-α (positive control) or 15 μg/ml Canstatin. Control cells received an equal volume of PBS. After 24 hours of treatment, medium containing detached cells was collected and attached cells were trypsinized and combined with detached cells and centrifuged at 3,000×g. Cells were then washed and phosphatidyl-serine externalization (an early apoptotic indicator) was measured by labeling with FITC-labeled annexin V (Clontech, Palo Alto, Calif., USA) according to the manufacturer's instructions. Annexin V-FITC-labeled cells were counted using a FAC Star Plus flow cytometer (Becton-Dickenson, Waltham, Mass., USA). For each treatment 15,000 cells were counted and stored in listmode.
C-PAE cells (0.5×10^6 per well) were seeded onto a 6-well plate in 10% FCS supplemented DMEM. The next day, fresh medium containing 10% FCS was added with either 80 ng/ml of TNF-α (positive control) or Tumstatin ranging from 0.02 to 20 μg/ml. Control cells received an equal volume of PBS. After 18 hours of treatment, medium containing floating cells was collected, and attached cells were trypsinized and centrifuged together with floating cells at 3,000×g. The cells were then washed in PBS and resuspended in binding buffer (10 mM HEPES/NaOH, pH 7.4, 140 mM NaCl, 2.5 mM CaCl2). Annexin V-FITC (Clontech, Palo Alto, Calif., USA) was added to a final concentration of 150 ng/ml, and the cells were incubated in the darkness for 10 minutes. The cells were washed again in PBS and resuspended in binding buffer. Annexin V-FITC labeled cells were counted using a FACStar Plus flow cytometer (Becton-Dickinson, Waltham, Mass., USA). For each treatment, 15,000 cells were counted and stored in listmode.
Apoptosis was measured by Annexin V-FITC assay, using the ApoAlert kit (Clontech, Palo Alto, Calif., USA). Propidium iodide was used to stain the nuclei of cells that had died by ways other than apoptosis.
The assay was performed as described above, by treating C-PAE cells with Tumstatin-44-131 for 18 hours. Control cells received PBS.

Caspase-3 in C-PAE cells [2] = assay: Caspase-3 assay; type: cell-based, bovine; conditions: TNF-α 80 ng/ml
Description: Tumstatin also altered cell morphology of C-PAE cells as monitored by phase contrast microscopy. After treating cells with 20 μg/ml of Tumstatin in the presence of 10% FCS for 24 hours on fibronectin-coated plates, the typical morphological features of apoptotic cells, membrane blebbing, cytoplasmic shrinkage, and chromatin condensation could be observed. […] Caspase-3 assay: Caspase-3 (CPP32) is an intracellular protease activated at the early stage of apoptosis, and initiates cellular breakdown by degrading structural and DNA repair proteins (Casciola-Rosen, L. et al., 1996, J. Exp. Med. 183:1957-64; Salvesen, G. S. et al., 1997, Cell 91:443-46). The protease activity of Caspase-3 was measured spectrophotometrically by detection of the chromophore (p-nitroanilide) cleaved from the labeled substrate (DEVD-pNA). C-PAE cells or PC-3 cells (0.5×10^6 per well) were plated onto a 6-well plate precoated with fibronectin (10 μg/ml) in DMEM supplemented with 10% FCS, and incubated overnight. The next day, the medium was replaced with DMEM containing 2% FCS and then incubated overnight at 37° C. Then cells were then stimulated with bFGF (3 ng/ml) in DMEM supplemented with 2% FCS, and also containing either TNF-α (80 ng/ml, positive control) or Tumstatin (10 μg/ml), and incubated for 24 hours. Controls received PBS buffer. After 24 hours, the supernatant cells were collected, and attached cells were trypsinized and combined with the supernatant cells. Cells were counted and resuspended in cell lysis buffer (Clontech) at a concentration of 4×10^7 cells/ml. The rest of the protocol followed the manufacturer's instructions (Clontech). A specific inhibitor of Caspase-3, DEVD-fmk (Asp-Glu-Val-Asp-fluoromethyl ketone) was used to confirm the specificity of the assay. The absorbance was measured in a microplate reader (Bio-Rad, Hercules, Calif., USA) at 405 nm. The assay was repeated three times for each cell type.
Apoptosis was also evaluated by measuring Caspase-3 activity as described in Example 27, above. The results are shown in FIG. 35, which is a histogram showing Caspase-3 activity as a measure of absorbance at OD405 (y-axis) of C-PAE cells treated (x-axis) with 5 μg/ml Tum-1, Tum-2, Tum-3 or Tum-4, or 80 ng/ml TNF-α or PBS buffer (control).
Caspase-3 activity was also assayed as described above. DEVD-fmk, a specific caspase-3 inhibitor, was used as an internal control to show specificity of Tumstatin-44-131. TNF-α (80 ng/ml) was used as a positive control. The experiments were repeated three times.
The protease activity of Caspase-3 in cells treated with T3 peptide was measured spectrophotometrically by detection of the chromophore (p-nitroanilide) cleaved from the labeled substrate (DEVD-pNA). […] In PC-3 nonendothelial cells, there was no difference in Caspase-3 activity between control treatments and T3 peptide-treated cells.

Caspase-3 in C-PAE cells [3] = assay: Caspase-3 assay; type: cell-based, bovine; conditions: 20 μg/ml Tumstatin; TNF-α positive control
C-PAE cells [4] = assay: Cell cycle analysis (propidium iodide, flow cytometry); type: cell-based, bovine
Description: To further evaluate the mechanism of T3 peptide on endothelial cell proliferation, the effect of T3 peptide on cell cycle progression was analyzed. In the growth arrested and contact inhibited cells (0 hour), 4.1% of cells were in S phase. […] This was true even at a maximal dosage of 100 μg/ml. The effect of the T3 peptide was dose-dependent, however, with the percentage of cells in S phase at 21.4% at 10 μg/ml, and 20.5% at 25 μg/ml. The percentage of cells in G0/G1 phase was 88.3% at 0 hour, 53.4% for the bFGF control, and 57.6%, 57.6% and 71.0% for treatments with T1, T6 and T3 peptide, respectively. […] Apoptotic Activity: Peptides T2, T3, T4, T5 and T6 (10 μg/ml concentration) were tested for their effect of viability of C-PAE cells using the MTT assay, as described in Examples 32 and 36 above. The results are shown in FIG. 43D, which is a histogram showing cell viability as measured at OD595 (y-axis), and treatments with the synthetic peptides (x-axis). […] TNF-α (100 ng/ml) was used to serve as a positive control in inducing endothelial cell apoptosis.
The effect of Tumstatin-44-131 and Tum-5-125-C-A on the cell cycle were assayed similarly to Example 4 above. Briefly, C-PAE cells were growth arrested by contact inhibition for 48 hours. The cells, at 10^5 cells per well, were then harvested and plated into a 12-well plate coated with fibronectin in 5% FCS and either recombinant Tumstatin-44-131 or Tum-5-125-C-A. After 21 hours, the cells were harvested and fixed in 70% ice-cold ethanol. The fixed cells were rehydrated a room temperature for 30 minutes in PBS containing 2% FCS and 0.1% Tween-20, centrifuged and resuspended in 0.5 ml of the same buffer. RNase (5 μg/ml) digestion was done at 37° C. for one hour, followed by staining with propidium iodide (5 μg/ml). The cells were then counted using an EPICS XL-MCL flow cytometer (Beckman-Coulter Instruments, Fullerton, Calif., USA).

DU-145 cells = assay: MTT cell viability assay; type: cell-based; conditions: 0-50 μg/ml
Description: (§1) Cell viability was measured by MTT assay, as described above.
(§2) The effects of Tumstatin-44-131 and Tum-5-125-C-A on cell viability of C-PAE cells were not seen in control PC-3 and DU-145 cells, as shown in FIGS. 52C and 52D. […] The activity of Tumstatin-44-131 is therefore specific to endothelial cells.

PC-3 tumors = assay: PC-3 xenograft in athymic nude NCRNU mice (Example 46); type: in vivo; conditions: 1 mg/kg i.p. b.i.d., 20 days
Description: Tumstatin-44-131 was also tested for its ability to suppress tumor growth. Male athymic nude NCRNU mice, of 5-6 weeks of age and about 25 g, were implanted with […] approximately 2×10^6 PC-3 (prostate cancer carcinoma) cells into the dorsal subcutis. […] The tumors were allowed to grow to about 50 mm^3, and animals were then pair-matched into groups of 6 mice. Initial doses of protein or vehicle (PBS, control) were given on the day of pair-matching (Day 1). Tumstatin-44-131, Tum-5-125-C-A, or human endostatin in sterile PBS was intraperitoneally injected daily b.i.d. at doses ranging from 1 to 20 mg/kg for 20 days. Control animals received injection of PBS vehicle. In one treatment, continuous subcutaneous delivery of Tumstatin-44-131 was done using surgically implanted Alzet mini-pumps. The mice were weighed twice weekly, and tumor measurements were taken, starting on Day 1. Estimated mean tumor volumes were calculated, and at Day 21, the mice were weighed, sacrificed, and their tumors excised and examined by light microscopy and CD31 immunostaining. The mean treated tumor weight was divided by the mean control tumor weight was subtracted from one, and expressed as a percentage to give the tumor growth inhibition for each group.

Goodpasture autoantibody = assay: Reactivity with Goodpasture autoantibody (western blotting); type: binding, human
Excerpt: Goodpasture syndrome is an autoimmune disease characterized by pulmonary hemorrhage and/or rapidly progressing glomerulonephritis, which are caused by the disruption of glomerular and alveolar basement membranes through immune injury associated with autoantibody activity against α3(IV) NC1. Recently, the most probable disease-related pathogenic epitope was identified in the N-terminal portion (Kalluri, R. et al., 1996, J. Biol. Chem. 271:9062-8; Hellmark, T. et al., 1999, Kidney Int. 55:938-44), and was then further confined within the N-terminal 40 amino acids (Hellmark, T. et al., 1999, J. Biol. Chem. 274:25862-8; Netzer, K. O. et al., 1999, J. Biol. Chem. 274:11267-74). The N-terminal Tumstatin-44-131 consists of residues 44-131 of Tumstatin, which is outside of the Goodpasture autoepitope. To further confirm that Tumstatin-44-131 would not be detected by Goodpasture autoantibody, antisera from patients with Goodpasture was used for western blotting.

PC-3 cells = assay: MTT cell viability assay; type: cell-based, human; conditions: 0-50 μg/ml
Description: as §1, §2

Row | Molecule | percentage of annexin-V-stained (apoptotic) cells (C-PAE cells [1]; 4 and 6 hours) | percentage of annexin-V-stained (apoptotic) cells (C-PAE cells [1]; 2 hours) | fold increase in Caspase-3 activity (Caspase-3 in C-PAE cells [2]; 10 μg/ml E. Coli-expressed Tumstatin-44-131) | fold increase in Caspase-3 activity (Caspase-3 in C-PAE cells [2]; 50 μg/ml T3 peptide) | fold increase in Caspase-3 activity (Caspase-3 in C-PAE cells [3]) | cell cycle arrest compared with Tumstatin-44-131 (C-PAE cells [4]) | effect on viability of DU-145 cells (DU-145 cells) | tumor growth inhibition (PC-3 tumors) | detection by antisera / autoantibodies from patients with Goodpasture syndrome (Goodpasture autoantibody) | effect on viability of PC-3 cells (PC-3 cells)
1 | TNF-α [reference compound] | ~20% | about 27% | 4.5 fold | 4.5 fold | 1.7 fold |  |  |  |  | 
2 | B1 |  |  |  |  |  | equivalent to treatment with Tumstatin-44-131 | not seen | 92.0% | failed to detect | not seen
